Data published in patent publication US20170087109A1, “COMPOSITIONS AND METHODS FOR TREATING BLACKHEADS” (Johnson & Johnson Consumer Inc., priority 2015, published 2017).

assay: Blackhead dissolution test (extracted blackheads submerged in test material, graded by expert inspection); parameters: species or system human; settings: blackhead submerged in approximately 100 microliters test material for 24 hours at room temperature, no agitation; 1 = not dissolved, 7 = completely dissolved
Procedure: A series of compounds and compositions were tested for their ability to dissolve blackheads as follows.
The blackheads were extracted from human volunteers using a comedone extracator. They were placed in a 24 or 96 well plate and submerged into approximately 100 microliters of each test material listed in Table 1 for 24 hours at room temperature ([…]). Gray color cards (GretagMacbeth ColorChecker™ Color Rendition Chart-Neutral 8 (0.23) CC20) were used underneath and measurements were made using a WILD M10 microscope at 40x, no agitation. The plates were covered with parafilm to avoid evaporation, and each test solution was removed at 24 hours and allowed to dry overnight. The amount of blackhead dissolved was graded by expert inspection on a scale from 1-7, 1 being not dissolved, and 7 being completely dissolved as shown in Table 1.

SMILES	Outcome at 24 hours (amount of blackhead dissolved, grade on scale 1-7)
CCCCCCCCCCCCCC(=O)O [10% Myristic acid in KOH, Myristic acid]	6.00 ± 0.01
[Na+].[OH-] [0.1M NaOH, NaOH, reference compound]	4.33 ± 0.58
CCCCCCCC/C=C\CCCCCCCC(=O)O [10% Oleic acid in KOH, Oleic acid]	7.00 ± 0.01
